In patent EP2334184B1, “FUNGICIDAL MIXTURE, CONTAINING FENPROPIDIN AND PENCONAZOLE” (Syngenta Participations AG, priority 2008, dated 2010):

Assays:
[1] = system: rose varieties; assay: Crop safety trials in Holland during the winter / dark season; format: in vivo
Method: The following trials were conducted in Holland during the winter period / dark season, when the total light radiation level is less than 2000 W/m^2 per day.
(§1) These treatments were applied to 8 different rose varieties, and phytotoxicity assessments made at 7 day intervals. A phytotoxicity score of greater than 2.0% indicates unacceptable phytotoxicity; a score of 1.0 to 2.0% is acceptable (but not ideal); a score of less than 1.0% is good.

[2] = system: rose varieties; assay: Crop safety trials in Holland in April (summer trials); format: in vivo; conditions: Cv. Red Naomi
Method: as §1
Corresponding trials were conducted using selected treatments from table 9 above, in Holland in April, when the total light radiation level is above 2000 W/m^2 per day.

[3] = Cv. Grand Prix, 7DAA1 (7 days after first application)
[4] = Cv. Grand Prix, <2000 W/m^2 per day, 0DAA0

Compound	Percentage phytotoxicity (%) [1, 3] [%]	Percentage phytotoxicity (%) ([1]; Cv. Grand Prix, 7DAA2)	Percentage phytotoxicity (%) ([1]; Cv. Grand Prix, 7DAA3)	Percentage phytotoxicity (%) ([1]; Cv. Grand Prix, 14DAA3)	Percentage phytotoxicity (%) ([1]; Cv. Grand Prix, 21DAA3)	Percentage phytotoxicity (%) [1, 4] [%]	Percentage phytotoxicity (%) ([1]; Cv. Red Naomi, 0DAA0)	Percentage phytotoxicity (%) ([1]; Cv. Red Naomi, 6DAA2)	Percentage phytotoxicity (%) ([1]; Cv. Red Naomi, 7DAA1)	Percentage phytotoxicity (%) ([1]; Cv. Red Naomi, 7DAA3)	Percentage phytotoxicity (%) ([1]; Cv. Red Naomi, 18DAA3)	Percentage phytotoxicity (%) ([2]; 7DAA1)	Percentage phytotoxicity (%) ([2]; 7DAA2)	Percentage phytotoxicity (%) ([2]; 7DAA3)	Percentage phytotoxicity (%) ([2]; 14DAA3)	Percentage phytotoxicity (%) ([2]; >2000 W/m^2 per day, 0DAA0)
CCCC(Cn1cncn1)c1ccc(Cl)cc1Cl (stereo not drawn) [Treatment 9]	0.0	0.0	4.0	2.0	0.3	0.0	0.0	1.7	2.7	3.0	0.7					
CCCC(Cn1cncn1)c1ccc(Cl)cc1Cl (stereo not drawn) [Treatment 8]	0.0	0.0	1.3	0.0	0.0	0.0	0.0	0.7	1.3	0.7	0.0	0.0	0.0	0.0	0.0	0.0
